Here are results for six compounds from PMC6273932, “Xanthium strumarium as an Inhibitor of α-Glucosidase, Protein Tyrosine Phosphatase 1β, Protein Glycation and ABTS^+ for Diabetic and Its Complication” (Molecules, 2016).

What is called inhibition is the relative decrease from the control value, in per cent.

≈ marks a conversion by molar mass, not a printed value.

Test [1] relates to PTP1β. Also on record: method as in ref 16 (Hwang et al.). The following applies: compounds isolated from Zea mays L., ref 16 (Hwang et al.), cited from earlier work.
In test [2] the target is α-glucosidase. More on the design: method as in ref 15 (Chen et al.). Particulars: compounds isolated from aerial parts of Gynura divaricate; ref 15 (Chen et al.); read-out: inhibitory effects against α-glucosidase; cited from earlier work.
The test system of test [3] is advanced glycation end products (AGEs). Briefly: AGEs inhibitory activity, bovine serum albumin-methylglyoxal assay (fluorescence). It counts as biochemical. The procedure: The modified procedure of Lee et al. was followed. Bovine serum albumin (10 mg/mL) was incubated with 5 mM methylglyoxal in sodium phosphate buffer (100 mM; pH 7.4). […] All of the reagents and samples were […] by filtration through 0.2 μm membrane filters and the mixture was incubated at 37 °C for 7 days. The fluorescence intensity was measured at an excitation wavelength of 330 nm and an emission wavelength of 410 nm with a LS50B fluorescence spectrometer Perkin-Elmer Ltd., (Buckinghamshire, FLS, UK). Aminoguanidine was also tested as a known inhibitor.

Test [4] concerns α-glucosidase from Saccharomyces sp. Description: α-glucosidase inhibitory activity assay (pNPG substrate, absorbance 405 nm). The format is biochemical. An excerpt: ^1H- and ^13C-NMR spectra and correlation NMR spectra such as COSY, HMBC, HMQC, and DEPT were obtained from a Bruker Avance DPX 400 (or 600) spectrometer (Berlin, Germany). These were obtained at operating frequencies of 400 MHz (^1H) and 100 (or 150) MHz (^13C) with CD3OD, (CD3)2SO, (CD3)2CO, or D2O and TMS was used as an internal standard; chemical shifts were reported in δ values. The α-glucosidase from Saccharomyces sp. (SSG) was purchased from Wako Pure Chemical Industries Ltd (Tokyo, Japan). […] All other chemicals and reagents used were of analytical grade.
The α-glucosidase inhibitory activity of the extracts and fractions was determined using a modified procedure reported method with a slight modification. The α-glucosidase activity was measured using the substrate p-nitrophenyl-α-D-glucopyranoside (pNPG), which is hydrolyzed by α-glucosidase to release the product p-nitrophenol, a colorant that can be monitored at 405 nm. The initial concentration of the enzyme solution was 0.62 unit/mL in 0.1 M phosphate buffer (pH 6.9) and the initial concentration of the substrate solution was 2 mM in the same phosphate buffer. The enzyme solution was mixed with water and the samples or controls in a clear 96-well microplate (flat bottom) and the reaction was initiated by addition of the substrate to the solution. The plates were incubated at 37 °C for 5 min and the reaction was terminated by the addition of 0.1 M Na2CO3. […] Background absorbance was determined using a non-enzyme control microplate containing the buffer and was subtracted from the absorbance of the samples and controls.

The target of test [5] is T1, protein tyrosine phosphatase 1β (PTP1β) (Homo sapiens, UniProt P18031).
T1 sequence (P18031 1-322 limits assumed): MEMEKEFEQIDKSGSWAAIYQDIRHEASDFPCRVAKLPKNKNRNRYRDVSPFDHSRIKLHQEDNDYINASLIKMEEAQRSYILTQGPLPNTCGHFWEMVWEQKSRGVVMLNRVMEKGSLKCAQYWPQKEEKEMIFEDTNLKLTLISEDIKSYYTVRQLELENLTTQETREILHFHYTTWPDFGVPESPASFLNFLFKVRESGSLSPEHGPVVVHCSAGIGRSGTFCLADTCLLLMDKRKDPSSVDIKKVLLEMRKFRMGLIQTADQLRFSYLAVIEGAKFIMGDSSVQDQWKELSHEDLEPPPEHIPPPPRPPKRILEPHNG
Description: PTP1β inhibitory activity assay (colorimetric kit, IR5 phosphopeptide substrate). It counts as biochemical. The procedure: PTP1β tyrosine phosphatase drug discovery kit is a colorimetric, non-radioactive assay designed to measure the phosphatase activity of purified PTP1β. […] Following incubation at 37 °C for 30 min, the reaction was terminated with the BIOMOL RED^TM reagent. The amount of […] produced was estimated by measuring the absorbance at 620 nm. The non-enzymatic hydrolysis of the IR5 substrate was corrected by measuring the increase in absorbance at 620 nm obtained in the absence of PTP1β enzyme.

The test system of test [6] is recombinant aldose reductase. Particulars: compounds from X. strumarium; cited from earlier work.
The nature of test [7]: ABTS^+ radical scavenging activity assay. The procedure: The method described by Li et al. was used with slight modifications. ABTS^+ diammonium salt (2 mM) and potassium persulfate (3.5 mM) were mixed, diluted in distilled water and kept in the dark at room temperature for 24 h before use. After addition of ABTS^+ solution to 10 µL of antioxidant, measurements were recorded at 10 min post reaction. The percentage inhibition of absorbance at 750 nm was calculated and plotted as a function of concentration of antioxidants. Trolox was used as positive control.

Test [8] deals with rat lens aldose reductase. Particulars: compounds from X. strumarium; cited from earlier work.
For test [9], the system named is AGEs. Also on record: method as in PMID 20118563. The following applies: isolated from the extracts of Erigeron annuus; cited from earlier work.
Setting [10] is: isolated compounds, - is no activity.

Consider `COc1cc(-c2oc3cc(O)cc(O)c3c(=O)c2O[C@@H]2O[C@H](CO)[C@@H](O)[C@H](O)[C@H]2O)ccc1O` [3′-methoxyhirsutrin], for which, in test [1] (read-out: PTP1β inhibitory activity IC50), the IC50 was 64 µM.
With `COC(=O)[C@]1(O)C[C@@H](O)[C@@H](OC(=O)/C=C/c2ccc(O)c(O)c2)[C@H](OC(=O)/C=C/c2ccc(O)c(O)c2)C1` [methyl 3,4-di-O-CQA], the IC50 in [2] is 12.2 µM.
Consider `O=C(/C=C/c1ccc(O)c(O)c1)O[C@@H]1[C@H](O)C[C@@](O)(C(=O)O)C[C@H]1OC(=O)/C=C/c1ccc(O)c(O)c1` [4,5-di-O-CQA], for which the IC50 in test [2] was 131 µM.
Regarding `COC(=O)[C@]1(O)C[C@@H](OC(=O)/C=C/c2ccc(O)c(O)c2)[C@@H](O)[C@H](OC(=O)/C=C/c2ccc(O)c(O)c2)C1` [compound 6, methyl-3,5-di-O-caffeoylquinic acid], the “Inhibition (%) AGEs” value in test [3] (10 μg/mL) worked out at 24.24%; in test [3] (20 μg/mL), 34.59%; in [3] (50 μg/mL) it was 54.77%; in test [3] (100 μg/mL), 89.47%. Further, the IC50 in test [3] (isolated compounds) was 82.8 µM; in [4] (isolated compounds), 18.4 µM; in test [7] (isolated compounds), 6.03 µM. Also, the “IC50 AGEs” value in test [3] (setting [10]) came out at 43.96 ± 3.89 µg/mL (≈ 82.9 µM). Also, in [3] (ratio of IC50 (μM) values), the “fold higher inhibition than positive control aminoguanidine (AGEs)” value came to 17.03 fold. Further, the “Inhibition (%) α-glucosidase” value was 22.63% in [4] (2.5 μg/mL), 40.00% in test [4] (5 μg/mL), 59.11% in test [4] (12.5 μg/mL) and 96.50% in test [4] (25 μg/mL). In [4] (setting [10]), the “IC50 α-glucosidase” value turned out to be 9.78 ± 0.79 µg/mL (≈ 18.4 µM). Also, the “fold higher inhibition than positive control acarbose (α-glucosidase)” value in [4] (ratio of IC50 (μM) values) came out at 31.74 fold. Moreover, the inhibition at 1 µg/mL in test [5] (1 μg/mL) amounted to 24%. Besides, the inhibition at 2.5 µg/mL in test [5] (2.5 μg/mL) was 30.7%. In test [5] (5 μg/mL), the inhibition at 5 µg/mL was determined as 50%. Besides, in [5] (10 μg/mL, - is no activity), the inhibition at 10 µg/mL came out at 82.5%. For the same compound, the “fold higher inhibition than positive control sumarin (PTP1β)” value in test [5] (ratio of IC50 (μM) values) was 2.93 fold. In [6], the “recombinant aldose reductase inhibitory activity” value is “strong”. Besides, the “Inhibition (%) ABTS^+” value is recorded as 7.49% in test [7] (0.33 μg/mL), 33.69% in test [7] (1.66 μg/mL) and 98.31% in test [7] (8.33 μg/mL). In addition, the “IC50 ABTS^+ radical scavenging” value in test [7] (setting [10]) turned out to be 3.20 ± 0.28 µg/mL (≈ 6.03 µM). The “fold higher inhibition than positive control trolox (ABTS^+)” value in test [7] (ratio of IC50 (μM) values) came to 4.93 fold. Moreover, the “rat lens aldose reductase inhibitory activity” value in test [8] was “strong”. Moreover, the “inhibitory activity on AGEs” value in test [9] was “strong inhibitory activity”.
For `O=c1c(O[C@@H]2O[C@H](CO)[C@@H](O)[C@H](O)[C@H]2O)c(-c2ccc(O)c(O)c2)oc2cc(O)cc(O)c12` [hirsutrin], the “PTP1β inhibitory activity IC50” value in test [1] is recorded as “no activity”.
As to methyl 4,5-di-O-CQA, the IC50 in test [2] was 13.1 µM.
